Measured values taken from patent US7825256B2, “Inducible nitric oxide synthase dimerization inhibitors” (Kalypsys, Inc., priority 2004, dated 2010).

Target: T1, hiNOS (Homo sapiens, UniProt P35228)
T1 construct: expressed in transfected cells; host or cells: HEK293
Assay: DAN assay, hiNOS expressed in transiently transfected HEK293 cells
Assay type: cell-based
Settings: HEK293 cells transiently transfected with hiNOS
Description: The source of nitric oxide synthase (NOS) enzyme can be generated in several ways including induction of endogenous iNOS using cytokines and/or lipopolysaccharide (LPS) in various cell types known in the art. Alternatively, the gene encoding the enzyme can be cloned and the enzyme can be generated in cells via heterologous expression from a transient or stable expression plasmid with suitable features for protein expression as are known in the art. Enzymatic activity (nitric oxide production) is calcium independent for iNOS, while the constitutive NOS isoforms, nNOS and eNOS, become active with the addition of various cofactors added to cellular media or extract as are well known in the art. Enzymes specified in Table 1 were expressed in HEK293 cells transiently transfected with the indicated NOS isoform.
A major metabolic pathway for nitric oxide is to nitrate and nitrite, which are stable metabolites within tissue culture, tissue, plasma, and urine (S Moncada, A Higgs, N Eng J Med 329, 2002 (1993)).
The level of nitrate or nitrite in the specimen can be quantified by any method known in the art which provides adequate sensitivity and reproducibility. A variety of protocols have also been described for detecting and quantifying nitrite and nitrate levels in biological fluids by ion chromatography (e.g., S A Everett et al., J. Chromatogr. 706, 437 (1995); J M Monaghan et al., J. Chromatogr. 770, 143 (1997)), high-performance liquid chromatography (e.g., M Kelm et al., Cardiovasc. Res. 41, 765 (1999)), and capillary electrophoresis (M A Friedberg et al., J. Chromatogr. 781, 491 (1997)). For example, 2,3-diaminonaphthalene reacts with the nitrosonium cation that forms spontaneously from NO to form the fluorescent product […]. Using 2,3-diaminonaphthalene (“DAN”), researchers have developed a rapid, quantitative fluorometric assay that can detect from 10 nM to 10 μM nitrite and is compatible with a multi-well microplate format. […] DAN reacts with nitrite ion and gives fluorescent […] (M C Carré et al., Analysis 27, 835-838 (1999)). Table 1 provides the test results of various compounds of the subject invention using the DAN assay.
A specimen can be processed prior to determination of nitrate or nitrite as required by the quantification method, or in order to improve the results, or for the convenience of the investigator. For example, processing can involve centrifuging, filtering, or homogenizing the sample. If the sample is whole blood, the blood can be centrifuged to remove cells and the nitrate or nitrite assay performed on the plasma or serum fraction. If the sample is tissue, the tissue can be dispersed or homogenized by any method known in the art prior to determination of nitrate or nitrite. It may be preferable to remove cells and other debris by centrifugation or another method and to determine the nitrate or nitrite level using only the fluid portion of the sample, or the extracellular fluid fraction of the sample. The sample can also be preserved for later determination, for example by freezing of urine or plasma samples. When appropriate, additives may be introduced into the specimen to preserve or improve its characteristics for use in the nitrate or nitrite assay.
The “level” of nitrate, nitrite, or other NO-related product usually refers to the concentration (in moles per liter, micromoles per liter, or other suitable units) of nitrate or nitrite in the specimen, or in the fluid portion of the specimen. However, other units of measure can also be used to express the level of nitrate or nitrite. For example, an absolute amount (in micrograms, milligrams, nanomoles, moles, or other suitable units) can be used, particularly if the amount refers back to a constant amount (e.g., grams, kilograms, milliliters, liters, or other suitable units) of the specimens under consideration. A number of commercially available kits can be used.

EC50 [nM]	SMILES
< 1000	O=C(NCCc1ccc2c(c1)OCO2)[C@H]1CCCCN1c1nc(-n2ccnc2)ns1 [Example 26, (R)-1-(3-Imidazol-1-yl-[1,2,4]thiadiazol-5-yl)-piperidine-2-carboxylic acid (2-benzo[1,3]dioxol-5-yl-ethyl)-amide]
< 1000	CCOC(=O)C(NC(=O)CNCc1ccc2c(c1)OCO2)c1cc(C)nc(-n2ccnc2)n1 (stereo not drawn) [Example 41, {2-[(Benzo[1,3]dioxol-5-ylmethyl)-amino]-acetylamino}-(2-imidazol-1-yl-6-methyl-pyrimidin-4-yl)-acetic acid ethyl ester]
> 50000	CN(CCCN)c1nc(-n2ccnc2)ns1 [Example 6, N-1-(3-Imidazol-1-yl-[1,2,4]thiadiazol-5-yl)-N-1-methyl-propane-1,3-diamine]
< 1000	CN(CCCN(C)c1nc(-n2ccnc2)ns1)CCc1ccc2c(c1)OCO2 [Example 88, N-(2-Benzo[1,3]dioxol-5-yl-ethyl)-N′-(3-imidazol-1-yl-[1,2,4]thiadiazol-5-yl)-N,N′-dimethyl-propane-1,3-diamine]
< 1000	CCOC(=O)CN(Cc1cc(C)nc(-n2ccnc2)n1)C(=O)NCCc1ccc2c(c1)OCO2 [Example 69, [3-(2-Benzo[1,3]dioxol-5-yl-ethyl)-1-(2-imidazol-1-yl-6-methyl-pyrimidin-4-ylmethyl)-ureido]-acetic acid ethyl ester]
< 50000	CNC(=O)C1CCC(C(=O)NCCc2ccc3c(c2)OCO3)N1c1nc(-n2ccnc2)ns1 (stereo not drawn) [Example 96, 1-(3-Imidazol-1-yl-[1,2,4]thiadiazol-5-yl)-pyrrolidine-2,5-dicarboxylic acid 2-[(2-benzo[1,3]dioxol-5-yl-ethyl)-amide] 5-methylamide]
< 1000	CNC(=O)CN(CCCNCc1ccc2c(c1)OCO2)c1nc(-n2ccnc2)ns1 [Example 56, 2-[{3-[(Benzo[1,3]dioxol-5-ylmethyl)-amino]-propyl}-(3-imidazol-1-yl-[1,2,4]thiadiazol-5-yl)-amino]-N-methyl-acetamide]
> 50000	Cc1cc(CNC(=O)C2CCCN2Cc2cccc(C(F)(F)F)c2)nc(-n2ccnc2)n1 (stereo not drawn) [Example 108, 1-(3-Trifluoromethyl-benzyl)-pyrrolidine-2-carboxylic acid (2-imidazol-1-yl-6-methyl-pyrimidin-4-ylmethyl)-amide]
< 1000	CC(C)[C@H](Nc1nc(-n2ccnc2)ns1)C(=O)NCCc1ccc2c(c1)OCO2 [Example 24, (S)—N-(2-Benzo[1,3]dioxol-5-yl-ethyl)-2-(3-imidazol-1-yl-[1,2,4]thiadiazol-5-ylamino)-3-methyl-butyramide]
< 1000	CN(C)c1ccc(CN(CCCNCc2ccc3c(c2)OCO3)c2nc(-n3ccnc3)ns2)cc1 [Example 105, N-Benzo[1,3]dioxol-5-ylmethyl-N′-(4-dimethylamino-benzyl)-N′-(3-imidazol-1-yl-[1,2,4]thiadiazol-5-yl)-propane-1,3-diamine]
< 1000	Cc1cc(C2C(C(=O)NCCc3ccc4c(c3)OCO4)CCN2C)nc(-n2ccnc2)n1 (stereo not drawn) [Example 125, 2-(2-Imidazol-1-yl-6-methyl-pyrimidin-4-yl)-1-methyl-pyrrolidine-3-carboxylic acid (2-benzo[1,3]dioxol-5-yl-ethyl)-amide]
> 50000	Cc1cc(CNC(=O)C2CCCN2Cc2ccsc2)nc(-n2ccnc2)n1 (stereo not drawn) [Example 119, 1-Thiophen-3-ylmethyl-pyrrolidine-2-carboxylic acid (2-imidazol-1-yl-6-methyl-pyrimidin-4-ylmethyl)-amide]
< 1000	Cc1cc(C2CCCN2CCN(C)Cc2ccc3c(c2)OCCO3)nc(-n2ccnc2)n1 (stereo not drawn) [Example 93, (2,3-Dihydro-benzo[1,4]dioxin-6-ylmethyl)-{2-[2-(2-imidazol-1-yl-6-methyl-pyrimidin-4-yl)-pyrrolidin-1-yl]-ethyl}-methyl-amine]
< 1000	O=C(NCCc1ccc2c(c1)OCCO2)[C@H]1C[C@H](O)CN1c1nc(-n2ccnc2)ns1 [Example 126, (2R,4S)-4-Hydroxy-1-(3-imidazol-1-yl-[1,2,4]thiadiazol-5-yl)-pyrrolidine-2-carboxylic acid [2-(2,3-dihydro-benzo[1,4]dioxin-6-yl)-ethyl]-amide]
< 50000	Cc1cc(CNC(=O)C2CCCN2Cc2ccc(Cl)cc2)nc(-n2ccnc2)n1 (stereo not drawn) [Example 113, 1-(4-Chloro-benzyl)-pyrrolidine-2-carboxylic acid (2-imidazol-1-yl-6-methyl-pyrimidin-4-ylmethyl)-amide]
> 50000	O=C(NCCc1ccc2c(c1)OCO2)[C@@H]1CCCN1c1nc(-n2ccnc2)ns1 [Example 25, (S)-1-(3-Imidazol-1-yl-[1,2,4]thiadiazol-5-yl)-pyrrolidine-2-carboxylic acid (2-benzo[1,3]dioxol-5-yl-ethyl)-amide]
< 1000	Cc1cc(C2CCCN2CC(=O)NCc2ccc3c(c2)OCO3)nc(-n2ccnc2)n1 (stereo not drawn) [Example 37, N-Benzo[1,3]dioxol-5-ylmethyl-2-[2-(2-imidazol-1-yl-6-methyl-pyrimidin-4-yl)-pyrrolidin-1-yl]-acetamide]
< 1000	CN(CCN1CCCC1c1nc(-n2ccnc2)ns1)Cc1ccc2c(c1)OCO2 (stereo not drawn) [Example 89, Benzo[1,3]dioxol-5-ylmethyl-{2-[2-(3-imidazol-1-yl-[1,2,4]thiadiazol-5-yl)-pyrrolidin-1-yl]-ethyl}-methyl-amine]
< 1000	CN(CCNCc1ccc2c(c1)OCO2)c1nc(-n2ccnc2)ns1 [Example 47, N′-Benzo[1,3]dioxol-5-ylmethyl-N-(3-imidazol-1-yl-[1,2,4]thiadiazol-5-yl)-N-methyl-ethane-1,2-diamine]
> 50000	CN(CCCNCc1c(Cl)cccc1Cl)c1nc(-n2ccnc2)ns1 [Example 10, N′-(2,6-Dichloro-benzyl)-N-(3-imidazol-1-yl-[1,2,4]thiadiazol-5-yl)-N-methyl-propane-1,3-diamine]
< 1000	Cc1cc(CNC(=O)CNCc2ccc3c(c2)OCO3)nc(-n2ccnc2)n1 [Example 14]
< 50000	Cc1cc(C(C)NCCNCc2ccc(-n3cccc3)cc2)nc(-n2ccnc2)n1 (stereo not drawn) [Example 97, N-[1-(2-Imidazol-1-yl-6-methyl-pyrimidin-4-yl)-ethyl]-N′-(4-pyrrol-1-yl-benzyl)-ethane-1,2-diamine]
< 1000	CN(CCNCCc1ccc2c(c1)OCCO2)c1nc(-n2ccnc2)ns1 [Example 83, N′-[2-(2,3-Dihydro-benzo[1,4]dioxin-6-yl)-ethyl]-N-(3-imidazol-1-yl-[1,2,4]thiadiazol-5-yl)-N-methyl-ethane-1,2-diamine]
< 1000	CC(NCCNCc1ccc2c(c1)OCO2)c1csc(-n2ccnc2)n1 (stereo not drawn) [Example 68, N-Benzo[1,3]dioxol-5-ylmethyl-N′-[1-(2-imidazol-1-yl-thiazol-4-yl)-ethyl]-ethane-1,2-diamine]
< 1000	CCOC(=O)c1csc(C2CCN(CCNCc3ccc4c(c3)OCO4)C2c2cc(C)nc(-n3ccnc3)n2)n1 (stereo not drawn) [Example 141, 2-[1-{2-[(Benzo[1,3]dioxol-5-ylmethyl)-amino]-ethyl}-2-(2-imidazol-1-yl-6-methyl-pyrimidin-4-yl)-pyrrolidin-3-yl]-thiazole-4-carboxylic acid ethyl ester]

SMILES	EC50 [nM]
CN(CCCNCCc1ccc2c(c1)OCO2)c1nc(-n2ccnc2)ns1 [Example 87, N′-(2-Benzo[1,3]dioxol-5-ethyl)-N-(3-imidazol-1-yl-[1,2,4]thiadiazol-5-yl)-N-methyl-propane-1,3-diamine]	< 1000
CC(=O)Oc1ccc(CN(CCCN(C)c2nc(-n3ccnc3)ns2)Cc2ccc(OC(C)=O)cc2)cc1 [Example 35, Acetic acid 4-[((4-acetoxy-benzyl)-{3-[(3-imidazol-1-yl-[1,2,4]thiadiazol-5-yl)-methyl-amino]-propyl}-amino)-methyl]-phenyl ester]	< 1000
